Reference: US11266715B2, “C3A receptor agonists for use against ischemic brain injury, stroke, traumatic brain injury, spinal cord injury and neurodegenerative disorders” (priority 2016, dated 2022)

Tested on: synapsin I+ puncta
Test: Synapsin I immunostaining of dorsal hippocampus after neonatal HI
Assay type: in vivo, mouse
Conditions: between groups or hemispheres
Procedure: Neuronal nuclei (NeuN), growth associated protein 43 (GAP-43), synapsin I (SYN), vesicular glutamate transporter 1 (VGLUT1), Glial Fibrillary Acidic Protein (GFAP) and ionized calcium-binding adapter molecule 1 (Iba-1) were visualized in the cornu ammonis (CA) and dentate gyrus (DG) of the dorsal hippocampus by immunohistochemistry. Briefly, following heat-induced antigen retrieval with 0.01 M citrate buffer (pH 6, 0.05% Tween 20) for 3×5 min, sections were washed 3×5 min with PBS-T (0.05% Tween 20), non-specific protein binding was reduced by incubation with blocking buffer [4% normal donkey serum (NeuN and Iba-1), 1% bovine serum albumin (GAP-43 and SYN), 3% normal goat serum (VGLUT1), 2% bovine serum albumin (GFAP) in PBS-T] for 1 h at room temperature (RT). […]
NeuN positive cells, GFAP positive relative area, as well as GAP-43, SYN, and VGLUT1 positive puncta were counted by using MetaMorph software (ver. 7.8.6, Molecular Devices, CA, USA) on confocal images obtained with a 20× (NeuN and GFAP) or 63× (GAP-43, SYN, and VGLUT1) objective (Carl Zeiss LSM 700 Laser Scanning Microscope, Jena, Germany). Iba-1 positive cell somata were counted on bright field images obtained with a 20× objective (Nikon Eclipse 80i). […]

C3a: Purified human C3a peptide (Complement Technologies), C3a receptor agonist, amino acid sequence SEQ ID NO: 1
density or average area of synapsin I+ puncta in CA1 or dentate gyrus: did not find any differences
